These results are taken from patent US9221787B2, “Sulphonamine compounds and methods of making and using same” (Zafgen, Inc., priority 2010, dated 2015).

The target in the test is T1, recombinant human MetAP2 (Homo sapiens, UniProt P50579).
T1 construct: Flag; made in house; host or cells: Sf9 insect cells
Kind of test: Inhibition of recombinant human MetAP2 activity (Amplex red fluorescence assay). Type of test: biochemical. Conditions: manganese enzyme, 0.75 mM Methionine-Alanine-Serine (MAS) substrate, 30 minutes at 25° C., pH 7.5, 1% DMSO. As to the method:
Compounds are tested for their capacity to inhibit recombinant human MetAP2 activity using the following assay.
Human recombinant Flag-MetAP2 expressed in Sf9 cells followed by affinity purification and EDTA treatment to remove endogenous active site cation is dialysed against MnCl2 to produce the manganese enzyme used in the assay. The assay is carried out for 30 minutes at 25° C. in 50 mM HEPES buffer containing 100 mM NaCl, pH 7.5 the presence of 0.75 mM Methionine-Alanine-Serine (MAS) substrate and […] amino acid oxidase using a dilution of purified MetAP2 giving approximately 50,000 RFU control activity. Cleavage of the substrate by MetAP2 and oxidation of free methionine by amino acid oxidase is detected and quantified using fluorescence generated by Amplex red (10-acetyl-3,7-dihydroxyphenoxazine) in combination with horseradish peroxidase which detects H2O2 released during the oxidation step. The fluorescent signal is detected using a multiwell fluorimeter. Compounds are diluted in DMSO prior to addition to assay buffer, the final DMSO concentration in the assay being 1%.
The IC50 is defined as the concentration at which a given compound achieves 50% inhibition of control. IC50 values are calculated using the XLfit software package (version 2.0.5).

T1 sequence (P50579 whole entry): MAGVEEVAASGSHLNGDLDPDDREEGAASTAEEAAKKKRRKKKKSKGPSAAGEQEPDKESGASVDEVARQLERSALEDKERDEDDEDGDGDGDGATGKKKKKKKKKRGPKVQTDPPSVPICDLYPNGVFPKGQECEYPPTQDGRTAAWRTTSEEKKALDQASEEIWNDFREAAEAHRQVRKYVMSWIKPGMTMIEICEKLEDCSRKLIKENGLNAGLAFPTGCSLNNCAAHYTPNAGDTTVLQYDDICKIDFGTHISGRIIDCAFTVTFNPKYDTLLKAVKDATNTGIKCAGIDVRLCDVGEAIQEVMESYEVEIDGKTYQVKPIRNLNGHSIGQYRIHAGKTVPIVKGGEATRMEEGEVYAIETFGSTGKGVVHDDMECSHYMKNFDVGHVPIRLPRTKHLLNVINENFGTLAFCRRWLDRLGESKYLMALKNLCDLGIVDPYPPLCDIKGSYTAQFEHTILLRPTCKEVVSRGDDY

In the case of `O=C(O)c1c(NS(=O)(=O)c2ccccc2)sc2c1CCCO2`, the half-maximal inhibitory concentration (IC50) was less than 200 nM. Regarding `O=C(O)c1c(NS(=O)(=O)c2ccccc2Cl)sc2c1CCCC2` [2-(2-Chlorobenzenesulphonylamino)-4,5,6,7-tetrahydrobenzo[b]thiophene-3-carboxylic acid], the half-maximal inhibitory concentration (IC50) lay in the range of 200 to 2000 nM. Take `CCc1ccccc1S(=O)(=O)Nc1sc2c(c1C(=O)O)CCCC2` [2-(2-Ethylbenzenesulphonylamino)-4,5,6,7-tetrahydrobenzo[b]thiophene-3-carboxylic acid]: the half-maximal inhibitory concentration (IC50) was less than 200 nM. Take `O=C(O)c1c(NS(=O)(=O)c2ccccc2F)sc2c1CCCC2` [2-(2-Fluorobenzenesulphonylamino)-4,5,6,7-tetrahydrobenzo[b]thiophene-3-carboxylic acid]: the IC50 was in the range of 200 to 2000 nM. `COc1ccccc1S(=O)(=O)Nc1sc2c(c1C(=O)O)CCCC2` [2-(2-Methoxybenzenesulphonylamino)-4,5,6,7-tetrahydrobenzo[b]thiophene-3-carboxylic acid]: the IC50 was less than 200 nM. Consider `Cc1ccccc1S(=O)(=O)Nc1sc2c(c1C(=O)O)CCCC2` [2-(2-Methylbenzenesulphonylamino)-4,5,6,7-tetrahydrobenzo[b]thiophen-3-carboxylic acid], for which the half-inhibitory concentration (IC50) was less than 200 nM. Take `O=C(O)c1c(NS(=O)(=O)c2ccccc2C(F)(F)F)sc2c1CCCC2` [2-(2-Trifluoromethylbenzenesulphonylamino)-4,5,6,7-tetrahydrobenzo[b]thiophene-3-carboxylic acid]: the half-inhibitory concentration (IC50) fell in the range of 200 to 2000 nM. In the case of `O=C(O)c1c(NS(=O)(=O)c2cccc(Cl)c2)sc2c1CCCC2` [2-(3-Chlorobenzenesulphonylamino)-4,5,6,7-tetrahydrobenzo[[b]thiophene-3-carboxylic acid], the IC50 fell in the range of 200 to 2000 nM. Consider `COc1cccc(S(=O)(=O)Nc2sc3c(c2C(=O)O)CCCC3)c1` [2-(3-Methoxybenzenensulphonylamino)-4,5,6,7-tetrahydrobenzo[b]thiophene-3-carboxylic acid], for which the 50% inhibitory concentration (IC50) fell in the range of 200 to 2000 nM. For the compound `O=C(O)c1c(NS(=O)(=O)c2ccc(Cl)cc2)sc2c1CCCC2` [2-(4-Chlorobenzenesulphonylamino)-4,5,6,7-tetrahydrobenzo[b]thiophene-3-carboxylic acid], the IC50 fell in the range of 200 to 2000 nM.

Turning to `Cc1cc(F)ccc1S(=O)(=O)Nc1sc2c(c1C(=O)O)CCCC2` [2-(4-Fluoro-2-methylbenzenesulphonylamino)-4,5,6,7-tetrahydrobenzo[b]thiophene-3-carboxylic acid], the IC50 fell in the range of 200 to 2000 nM. In the case of `O=C(O)c1c(NS(=O)(=O)c2ccc(F)cc2)sc2c1CCCC2` [2-(4-Fluorobenzenesulphonylamino)-4,5,6,7-tetrahydrobenzo[b]thiophene-3-carboxylic acid], the IC50 is less than 200 nM.

Consider `O=C(O)c1c(NS(=O)(=O)C2CCCCC2)sc2c1CCCC2` [2-(Cyclohexanesulphonylamino)-4,5,6,7-tetrahydrobenzo[b]thiophene-3-carboxylic acid], for which the half-inhibitory concentration (IC50) was in the range of 200 to 2000 nM. As to `CC1CCc2sc(NS(=O)(=O)c3ccccc3)c(C(=O)O)c2C1` (stereo not shown) [2-Benzenensulphonylamino-5-methyl-4,5,6,7-tetrahydrobenzo[b]thiophene-3-carboxylic acid], the concentration for half-maximal inhibition (IC50) lay within 200 to 2000 nM. Take `Cn1c2c(c(C(=O)O)c1NS(=O)(=O)c1ccccc1)CCCC2` [2-Benzenesulphonylamino-1-methyl-4,5,6,7-tetrahydro-1H-indole-3-carboxylic acid]: the IC50 lay in the range of 200 to 2000 nM. For `O=C(O)c1c(NS(=O)(=O)c2ccccc2)sc2c1CCCC2` [2-Benzenesulphonylamino-4,5,6,7-tetrahydrobenzo[b]thiophene-3-carboxylic acid], the concentration for half-maximal inhibition (IC50) is less than 200 nM. As to `O=C(O)c1c(NS(=O)(=O)c2ccccc2)sc2c1CCOC2` [2-Benzenesulphonylamino-4,7-dihydro-5H-thieno[2,3-c]pyran-3-carboxylic acid], the IC50 lay within 200 to 2000 nM.

In the case of `Cc1c(-c2ccccc2)sc(NS(=O)(=O)c2ccccc2)c1C(=O)O` [2-Benzenesulphonylamino-4-methyl-5-phenylthiophene-3-carboxylic acid], the IC50 is more than 2000 nM. The value for `CC1(C)CCc2sc(NS(=O)(=O)c3ccccc3)c(C(=O)O)c2C1` [2-Benzenesulphonylamino-5,5-dimethyl-4,5,6,7-tetrahydrobenzo[b]thiophene-3-carboxylic acid] was 200 to 2000 nM; that for `O=C(O)c1c(NS(=O)(=O)c2ccccc2)sc2c1CCC2` [2-Benzenesulphonylamino-5,6-dihydro-4H-cyclopenta[b]thiophene-3-carboxylic acid] was 200 to 2000 nM. Consider `Cc1c(-c2ccoc2)sc(NS(=O)(=O)c2ccccc2)c1C(=O)O` [2-Benzenesulphonylamino-5-(furan-3-yl)-4-methylthiophene-3-carboxylic acid], for which the 50% inhibitory concentration (IC50) was in the range of 200 to 2000 nM. Turning to `O=C(O)c1cc(C2CCOCC2)sc1NS(=O)(=O)c1ccccc1` [2-Benzenesulphonylamino-5-(tetrahydropyran-4-yl)thiophene-3-carboxylic acid], the half-maximal inhibitory concentration (IC50) is more than 2000 nM.

Take `CCc1sc(NS(=O)(=O)c2ccccc2)c(C(=O)O)c1C(C)C` [2-Benzenesulphonylamino-5-ethyl-4-isopropylthiophene-3-carboxylic acid]: the concentration for half-maximal inhibition (IC50) is 200 to 2000 nM. For `CCc1sc(NS(=O)(=O)c2ccccc2)c(C(=O)O)c1C` [2-Benzenesulphonylamino-5-ethyl-4-methylthiophene-3-carboxylic acid], the 50% inhibitory concentration (IC50) is 200 to 2000 nM. In the case of `O=C(O)c1cc(-c2ccccc2)sc1NS(=O)(=O)c1ccccc1` [2-Benzenesulphonylamino-5-phenylthiophene-3-carboxylic acid] it was more than 2000 nM; in that of `CC1(C)CCc2c(sc(NS(=O)(=O)c3ccccc3)c2C(=O)O)C1` [2-Benzenesulphonylamino-6,6-dimethyl-4,5,6,7-tetrahydrobenzo[b]thiophene-3-carboxylic acid], 200 to 2000 nM.

Consider `O=C(O)c1c(NS(=O)(=O)c2ccccc2)sc2c1COCC2` [2-Benzenesulphonylamino-6,7-dihydro-4H-thieno[3,2-c]pyran-3-carboxylic acid], for which the IC50 lay within 200 to 2000 nM. In the case of `CC1CCc2c(sc(NS(=O)(=O)c3ccccc3)c2C(=O)O)C1` (stereo not shown) [2-Benzenesulphonylamino-6-methyl-4,5,6,7-tetrahydrobenzo[b]thiophene-3-carboxylic acid], the half-inhibitory concentration (IC50) was less than 200 nM. Take `O=C(O)c1c(NS(=O)(=O)c2ccccc2)sc2ccccc12` [2-Benzenesulphonylaminobenzo[b]thiophene-3-carboxylic acid]: the 50% inhibitory concentration (IC50) was more than 2000 nM.

Regarding `O=C(O)c1c(NS(=O)(=O)Cc2ccccc2)sc2c1CCCC2` [2-Phenylmethanesulphonylamino-4,5,6,7-tetrahydrobenzo[b]thiophene-3-carboxylic acid], the 50% inhibitory concentration (IC50) lay in the range of 200 to 2000 nM. Regarding `CCN(CC)C/C=C\c1ccccc1S(=O)(=O)Nc1sc2c(c1C(=O)O)CCCC2` [2-[2-((Z)-3-Diethylaminoprop-1-enyl)benzenesulphonylamino]-4,5,6,7-tetrahydrobenzo[b]thiophene-3-carboxylic acid], the IC50 lay in the range of 200 to 2000 nM.

The term IC50 denotes the concentration needed to halve the response being measured.
